Laboratory results reported in PubChem BioAssay AID1963826 (Molecular Pharmacology Branch, DTP, NCI, 2024).

Tested on: 926638-142-R-J1-PDC complex spheroid viability
Assay: Anticancer human tumor 926638-142-R-J1-PDC patient-derived endometrial carcinoma cell line growth inhibition [POLQ]
Settings: for IC50: curve of first compound; for viability, T/C: stronger effect = lower value
How it was run: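 Three-cell-type spheroids modelling solid tumor plus stroma served as the readout system; POL inhibitors were tested individually and in combination, concentration ranges set by clinical Cmax where known.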

[1] = second compound 0.0316 µM, first compound 0.0316 µM
[2] = second compound 0.0316 µM, first compound 0.1 µM
[3] = second compound 0.0316 µM, first compound 0.316 µM
[4] = second compound 0.0316 µM, first compound 1 µM
[5] = second compound 0.0316 µM, first compound 3.16 µM
[6] = second compound 0.0316 µM, first compound 10 µM
[7] = second compound 0.1 µM, first compound 0.0316 µM
[8] = second compound 0.1 µM, first compound 0.1 µM
[9] = second compound 0.1 µM, first compound 0.316 µM
[10] = second compound 0.1 µM, first compound 1 µM
[11] = second compound 0.1 µM, first compound 3.16 µM
[12] = second compound 0.1 µM, first compound 10 µM
[13] = second compound 0.316 µM, first compound 0.0316 µM
[14] = second compound 0.316 µM, first compound 0.1 µM
[15] = second compound 0.316 µM, first compound 0.316 µM
[16] = second compound 0.316 µM, first compound 1 µM
[17] = second compound 0.316 µM, first compound 3.16 µM
[18] = second compound 0.316 µM, first compound 10 µM
[19] = second compound 1 µM, first compound 0.0316 µM
[20] = second compound 1 µM, first compound 0.1 µM
[21] = second compound 1 µM, first compound 0.316 µM
[22] = second compound 1 µM, first compound 1 µM
[23] = second compound 1 µM, first compound 3.16 µM
[24] = second compound 1 µM, first compound 10 µM
[25] = second compound 3.16 µM, first compound 0.0316 µM
[26] = second compound 3.16 µM, first compound 0.1 µM
[27] = second compound 3.16 µM, first compound 0.316 µM
[28] = second compound 3.16 µM, first compound 1 µM
[29] = second compound 3.16 µM, first compound 3.16 µM
[30] = second compound 3.16 µM, first compound 10 µM
[31] = second compound 10 µM, first compound 0.0316 µM
[32] = second compound 10 µM, first compound 0.1 µM
[33] = second compound 10 µM, first compound 0.316 µM
[34] = second compound 10 µM, first compound 1 µM
[35] = second compound 10 µM, first compound 3.16 µM
[36] = second compound 10 µM, first compound 10 µM
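Further: spheroids exposed to drugs for one week before readout.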
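Wherever viability, T/C is given: percent viability relative to DMSO vehicle control wells set as 100%.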

In the case of CC1COCCN1c1cc(C2(S(C)(=N)=O)CC2)nc(-c2ccnc3[nH]ccc23)n1 (stereo unspecified) + COC1C(OC(N)=O)C(O)C(Oc2ccc3c(O)c(NC(=O)c4ccc(O)c(CC=C(C)C)c4)c(=O)oc3c2C)OC1(C)C, the IC50 (second compound 0.0316 µM) is reported as 5670 nM, the IC50 (second compound 0.1 µM) is reported as 7870 nM and the IC50 (second compound 0.316 µM) is reported as 6150 nM. The IC50 (second compound 1 µM) was 5990 nM, the IC50 (second compound 3.16 µM) was 5860 nM and the IC50 (second compound 10 µM) was 5680 nM. The viability, T/C [1] was 119%, the viability, T/C [2] was 99.4% and the viability, T/C [3] was 110%. The viability, T/C [4] was 88.1%, the viability, T/C [5] was 64.9% and the viability, T/C [6] was 35.5%. For the same compound, the viability, T/C [7] was 96%, the viability, T/C [8] was 107% and the viability, T/C [9] was 109%. It also gave a viability, T/C [10] of 82.7%, a viability, T/C [11] of 71% and a viability, T/C [12] of 44.5%. It also gave a viability, T/C [13] of 107%, a viability, T/C [14] of 98% and a viability, T/C [15] of 115%. It also gave a viability, T/C [16] of 83.1%, a viability, T/C [17] of 77.2% and a viability, T/C [18] of 31.9%. For the same compound, the viability, T/C [19] was 121%, the viability, T/C [20] was 101% and the viability, T/C [21] was 94%. The viability, T/C [22] was 84.4%, the viability, T/C [23] was 77.2% and the viability, T/C [24] was 31.8%. The viability, T/C [25] was 93.1%, the viability, T/C [26] was 106% and the viability, T/C [27] was 114%. For the same compound, the viability, T/C [28] was 99.3%, the viability, T/C [29] was 70.4% and the viability, T/C [30] was 32.4%. The viability, T/C [31] was 97.6%, the viability, T/C [32] was 91.4% and the viability, T/C [33] was 100%. For the same compound, the viability, T/C [34] was 89.2%, the viability, T/C [35] was 71.1% and the viability, T/C [36] was 29.8%.

CCc1cc2c(N3CCc4c(cc(Cn5ccnc5)cc4-c4cn(C)nc4C(F)(F)F)C3=O)ccnc2c(OC)n1 + COC1C(OC(N)=O)C(O)C(Oc2ccc3c(O)c(NC(=O)c4ccc(O)c(CC=C(C)C)c4)c(=O)oc3c2C)OC1(C)C gave an IC50 (second compound 0.0316 µM) of 242 nM, an IC50 (second compound 0.1 µM) of 382 nM and an IC50 (second compound 0.316 µM) of 332 nM. It also gave an IC50 (second compound 1 µM) of 258 nM, an IC50 (second compound 3.16 µM) of 225 nM and an IC50 (second compound 10 µM) of 299 nM. For the same compound, the viability, T/C [1] was 81.8%, the viability, T/C [2] was 60.3% and the viability, T/C [3] was 46.7%. For the same compound, the viability, T/C [4] was 38.5%, the viability, T/C [5] was 28% and the viability, T/C [6] was 25.9%. For the same compound, the viability, T/C [7] was 81.9%, the viability, T/C [8] was 63.8% and the viability, T/C [9] was 54.2%. It also gave a viability, T/C [10] of 40.9%, a viability, T/C [11] of 25.8% and a viability, T/C [12] of 22.7%. It also gave a viability, T/C [13] of 77.7%, a viability, T/C [14] of 57.7% and a viability, T/C [15] of 52.6%. For the same compound, the viability, T/C [16] was 43%, the viability, T/C [17] was 28.6% and the viability, T/C [18] was 26.6%. It also gave a viability, T/C [19] of 91.7%, a viability, T/C [20] of 60.2% and a viability, T/C [21] of 46.5%. The viability, T/C [22] was 45%, the viability, T/C [23] was 22.5% and the viability, T/C [24] was 26.1%. The viability, T/C [25] was 85.2%, the viability, T/C [26] was 54.2% and the viability, T/C [27] was 48.5%. It also gave a viability, T/C [28] of 38.5%, a viability, T/C [29] of 28.1% and a viability, T/C [30] of 21.1%. For the same compound, the viability, T/C [31] was 79.1%, the viability, T/C [32] was 64.5% and the viability, T/C [33] was 47%. For the same compound, the viability, T/C [34] was 40.1%, the viability, T/C [35] was 32% and the viability, T/C [36] was 25.9%.

Cn1ncnc1[C@H]1c2n[nH]c(=O)c3cc(F)cc(c23)N[C@@H]1c1ccc(F)cc1 + COC1C(OC(N)=O)C(O)C(Oc2ccc3c(O)c(NC(=O)c4ccc(O)c(CC=C(C)C)c4)c(=O)oc3c2C)OC1(C)C was tested, and the IC50 (second compound 0.0316 µM) was > 100 nM, the IC50 (second compound 0.1 µM) was > 100 nM and the IC50 (second compound 0.316 µM) was > 100 nM. The IC50 (second compound 1 µM) was > 100 nM, the IC50 (second compound 3.16 µM) was > 100 nM and the IC50 (second compound 10 µM) was > 100 nM. It also gave a viability, T/C (second compound 0.0316 µM, first compound 0.000316 µM) of 84.5%, a viability, T/C (second compound 0.0316 µM, first compound 0.001 µM) of 83.7% and a viability, T/C (second compound 0.0316 µM, first compound 0.00316 µM) of 81.7%. The viability, T/C (second compound 0.0316 µM, first compound 0.01 µM) was 86.5%, the viability, T/C [1] was 71.5% and the viability, T/C [2] was 79.5%. For the same compound, the viability, T/C (second compound 0.1 µM, first compound 0.000316 µM) was 106%, the viability, T/C (second compound 0.1 µM, first compound 0.001 µM) was 96.4% and the viability, T/C (second compound 0.1 µM, first compound 0.00316 µM) was 86%. For the same compound, the viability, T/C (second compound 0.1 µM, first compound 0.01 µM) was 90.5%, the viability, T/C [7] was 76.3% and the viability, T/C [8] was 69.5%. For the same compound, the viability, T/C (second compound 0.316 µM, first compound 0.000316 µM) was 117%, the viability, T/C (second compound 0.316 µM, first compound 0.001 µM) was 86.4% and the viability, T/C (second compound 0.316 µM, first compound 0.00316 µM) was 72.7%. For the same compound, the viability, T/C (second compound 0.316 µM, first compound 0.01 µM) was 78.5%, the viability, T/C [13] was 69.7% and the viability, T/C [14] was 60.3%. For the same compound, the viability, T/C (second compound 1 µM, first compound 0.000316 µM) was 85.5%, the viability, T/C (second compound 1 µM, first compound 0.001 µM) was 94.1% and the viability, T/C (second compound 1 µM, first compound 0.00316 µM) was 92.3%. For the same compound, the viability, T/C (second compound 1 µM, first compound 0.01 µM) was 60.1%, the viability, T/C [19] was 78.6% and the viability, T/C [20] was 76.7%. It also gave a viability, T/C (second compound 3.16 µM, first compound 0.000316 µM) of 68.5%, a viability, T/C (second compound 3.16 µM, first compound 0.001 µM) of 81.7% and a viability, T/C (second compound 3.16 µM, first compound 0.00316 µM) of 74.3%. It also gave a viability, T/C (second compound 3.16 µM, first compound 0.01 µM) of 81.7%, a viability, T/C [25] of 78.5% and a viability, T/C [26] of 69.6%. The viability, T/C (second compound 10 µM, first compound 0.000316 µM) was 84.8%, the viability, T/C (second compound 10 µM, first compound 0.001 µM) was 90.2% and the viability, T/C (second compound 10 µM, first compound 0.00316 µM) was 77.6%. The viability, T/C (second compound 10 µM, first compound 0.01 µM) was 81%, the viability, T/C [31] was 82.4% and the viability, T/C [32] was 76.6%.
